Measured values from paper PMC7428016, “Influence of ligand’s directional configuration, chrysenes as model compounds, on the binding activity with aryl hydrocarbon receptor” (Scientific Reports, 2020).

Assays:
AhR = molecular target: T1, AhR (Rattus norvegicus, UniProt P41738); assay: H4IIE-luc transactivation bioassay (AhR-mediated potency)
T1 sequence (P41738 10-853): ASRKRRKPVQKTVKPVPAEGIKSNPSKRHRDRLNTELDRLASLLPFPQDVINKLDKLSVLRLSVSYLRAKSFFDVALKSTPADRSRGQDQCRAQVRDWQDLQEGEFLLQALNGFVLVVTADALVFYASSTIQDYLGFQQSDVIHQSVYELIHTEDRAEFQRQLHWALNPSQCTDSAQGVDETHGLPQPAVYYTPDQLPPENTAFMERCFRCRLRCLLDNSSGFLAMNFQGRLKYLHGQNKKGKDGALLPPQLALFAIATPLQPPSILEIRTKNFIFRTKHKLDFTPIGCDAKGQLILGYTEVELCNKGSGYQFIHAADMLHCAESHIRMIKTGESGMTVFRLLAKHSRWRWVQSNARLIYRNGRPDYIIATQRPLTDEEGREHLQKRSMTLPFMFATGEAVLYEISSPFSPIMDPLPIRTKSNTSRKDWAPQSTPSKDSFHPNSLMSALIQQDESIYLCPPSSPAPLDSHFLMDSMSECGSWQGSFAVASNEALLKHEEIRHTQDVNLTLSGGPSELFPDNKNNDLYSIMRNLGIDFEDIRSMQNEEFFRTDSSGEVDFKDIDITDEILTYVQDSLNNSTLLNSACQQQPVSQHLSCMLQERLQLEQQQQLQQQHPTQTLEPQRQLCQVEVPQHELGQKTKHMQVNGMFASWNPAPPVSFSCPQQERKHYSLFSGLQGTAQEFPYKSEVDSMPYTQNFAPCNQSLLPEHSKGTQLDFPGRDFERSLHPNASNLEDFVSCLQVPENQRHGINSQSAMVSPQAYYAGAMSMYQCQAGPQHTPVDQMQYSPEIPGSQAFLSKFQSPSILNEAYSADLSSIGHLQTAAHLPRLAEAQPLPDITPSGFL
From the text: H4IIE cell line derived from rat hepatoma has been reported to continuously express cytochrome P450 protein/mRNA. For this study, H4IIE cells transfected with the luciferase (Luc) reporter gene plasmid (pGudLuc1.1) were used, originally obtained from Jac Aarts, University of Wageningen, The Netherlands and further developed by John Giesy, University of Saskatchewan[44],[45]. Upon ligand binding, AhR in H4IIE-luc is activated and translocated to the nucleus, where heat shock proteins are dissociated from the complex and they form a dimer with the AhR nuclear translocator (ARNT) protein. This complex binds to specific DNA sequences with high affinity, the dioxin-responsive element (DRE). The binding to the DRE results in DNA bending transcriptional activation of adjacent responsive genes.
Acute toxic potencies of chrysene homologues were determined based on an AhR-mediated activity using H4IIE-luc cells, by the method previously reported. […] After the exposure, the activity results were expressed as relative luminescence units that were quantified using a Victor X3 multi label plate reader (PerkinElmer, Waltham, MA). Benzo[a]pyrene was used as a positive control ligand. We converted responses of the H4IIE-luc bioassay to the percentages of the maximum response (%BaPmax) observed for a 50 nM BaP (= 100%BaPmax). All bioassays were repeated four times in triplicate (Table S4 for detail information of in vitro bioassay conditions). […] Estimations of EC50 values of target compounds from the dose–response relationships were basically assumed equal efficacy and parallelism between target compounds and reference compound (benzo[a]pyrene).
Table S4. In vitro transactivation bioassay conditions for evaluating toxicities of chemical compounds.

[1] = Table S1, not marked as estimated; cited from earlier work

SMILES	EC50 (AhR)	Log Kow [1]
Cc1ccc2c(ccc3c4ccccc4ccc23)c1 [2-methylchrysene]	0.66 µM	–
Oc1ccc2c(ccc3c4ccccc4ccc23)c1 [2-hydroxychrysene]	59 µM	–
c1ccc2c(c1)ccc1c2ccc2ccc3ccccc3c21 [Benzo[c]chrysene]	1.3 µM	7.11
Oc1cccc2c1ccc1c3ccccc3ccc21 [1-hydroxychrysene]	87 µM	–
Cc1ccc2ccc3c4ccccc4ccc3c2c1 [3-methylchrysene]	1.1 µM	–
c1ccc2c(c1)ccc1c2ccc2c3ccccc3ccc21 [Benzo[a]chrysene]	20 µM	7.11
Cc1cccc2c1ccc1c3ccccc3ccc21 [1-methylchrysene]	1.9 µM	–
c1ccc2c(c1)ccc1c3ccccc3ccc21 [Chrysene]	7.2 µM	5.81
Oc1ccc2ccc3c4ccccc4ccc3c2c1 [3-hydroxychrysene]	140 µM	–
c1ccc2cc3c(ccc4c5ccccc5ccc34)cc2c1 [Benzo[b]chrysene]	2.8 µM	7.11
c1ccc2c(c1)cc1ccc3cccc4c5ccccc5c2c1c34 [Dibenzo[def,p]chrysene]	76 µM	7.71
c1ccc2c(c1)cc1ccc3c4ccccc4cc4ccc2c1c43 [Dibenzo[b,def]chrysene]	14 µM	7.28
